Reference: patent US20080233097A1, “Phosphorylation Site Of Mitogen-Activated Protein Kinases, Modified Proteins And Applications” (UNIVERSIDAD AUTONOMA DE MADRID, priority 2005, published 2008)

Legend:
GRK2 = molecular target: T1, GRK2 (Bos taurus, UniProt P21146); experiment: GRK2 kinase activity in vitro (casein substrate); assay type: biochemical; details: 0.5 μM
T1 construct: made in house; host or cells: Sf9 cells (baculovirus)
T1 sequence (P21146 1-689): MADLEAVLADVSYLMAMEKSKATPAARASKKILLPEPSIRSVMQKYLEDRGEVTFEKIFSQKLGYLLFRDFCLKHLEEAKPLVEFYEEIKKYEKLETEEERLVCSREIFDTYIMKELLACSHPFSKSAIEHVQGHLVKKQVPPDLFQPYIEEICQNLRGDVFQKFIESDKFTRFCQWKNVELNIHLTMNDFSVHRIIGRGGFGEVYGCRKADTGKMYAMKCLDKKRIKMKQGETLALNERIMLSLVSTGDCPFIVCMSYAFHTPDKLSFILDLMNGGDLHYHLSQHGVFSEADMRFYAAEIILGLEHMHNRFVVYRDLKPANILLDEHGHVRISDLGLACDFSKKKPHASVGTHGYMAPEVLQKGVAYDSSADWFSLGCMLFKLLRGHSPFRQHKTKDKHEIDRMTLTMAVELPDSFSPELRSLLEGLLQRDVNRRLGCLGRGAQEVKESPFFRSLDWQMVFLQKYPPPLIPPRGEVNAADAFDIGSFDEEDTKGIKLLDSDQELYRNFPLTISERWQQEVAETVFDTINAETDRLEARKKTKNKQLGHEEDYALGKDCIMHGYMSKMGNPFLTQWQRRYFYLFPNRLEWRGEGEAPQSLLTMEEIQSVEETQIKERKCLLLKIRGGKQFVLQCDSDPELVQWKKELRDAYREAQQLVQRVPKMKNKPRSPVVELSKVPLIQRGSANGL

3T3-L1 cells [1] = experiment: adipocyte differentiation of 3T3-L1 (Oil Red staining, adipocyte count); assay type: cell-based; details: 10 μM; insulin-induced differentiation
Text: 3T3L1 lines stably transfected with pCDNA3-GRK2 and pCDNA3-GRK2K220R were made. GRK2 (anti-GRK2) expression controls obtained in cell lines, compared to 3T3L1 levels, are included. The cells were subjected to a standard differentiation treatment and on day 15 of the latter, the cells were fixed with formalin and stained with Oil Red, a lipophilic coloring which binds to the fats accumulated by the adipocytes. The cells with adipocytic phenotype (in red) were counted under microscope in a total of 25 fields. Representative photographs of two independent experiments are shown in duplicate. A photo of the 3T3L1 cells, free of stimulation with insulin during the differentiation process (control), is also included. The graph reflects the adipocyte count (±SEM) in these experiments.
The cell culture was carried out with 10% DMEM medium of NCS serum. However, the entire differentiation process which is described below must be performed in depleted AXC serum (ion exchange resin) by means of successive adsorptions of fetal calf serum on an anion exchange resin and on active carbon. AXC serum was provided by the kitchen service of the Instituto of Investigaciones Biomédicas (Biomedical Research Institute). The cells are grown until their confluence and are plated (5×10^5 in P-100) in DMEM-10% AXC medium, supplemented with 4 μM of biotin (Sigma). The following day, the medium is replaced with fresh medium. The cells are grown another three days, until confluence is reached again, that day is called day “0”. On day 0 of differentiation, the cells are cultured in a medium containing: 0.5 μM dexamethasone (Sigma), 0.5 mM 3-isobutyl-1-methylxanthine (IMBX, of Sigma) and 1 μM insulin (Sigma) and in which they will remain for another three days. […] From day 6 to day 15, the adipogenesis was analyzed by staining with Oil Red, a red coloring of lipophilic constitution which binds to the drops of fat accumulated by the adipocytes in their cytoplasm. […] The cells are counted in a total of 25 fields per each experimental plate.

3T3-L1 cells [2] = details: prior demonstration of p38 involvement; cited from earlier work

C[S+]([O-])c1ccc(-c2nc(-c3ccncc3)c(-c3ccc(F)cc3)[nH]2)cc1 (stereo not drawn) [SB203580]
effect on kinase activity of GRK2 (GRK2): does not affect the kinase activity of GRK2
effect on adipogenesis (3T3-L1 cells [1]): reverses the entire adipogenesis
effect on differentiation into adipocytes (3T3-L1 cells [2]): blocked
